Usually IC50 stands for the concentration needed to halve the response being measured.

Data on 28 molecules can be found in publication PMC2248166, “Quantitative peptide binding motifs for 19 human and mouse MHC class I molecules derived using positional scanning combinatorial peptide libraries” (Immunome Research, 2008).

Where a SMILES comes first, the peptide text is derived from it.

The target of the assay is HLA B*0801 (Homo sapiens, UniProt P01889, A93T/A95T/D138N/E176V/E187T/K202T/Q94N/R180D/S35A/V36M/Y33D/Y91F). The assay can be described thus: biochemical. Type of assay: binding.
Take `CC(C)C[C@H](NC(=O)[C@@H](NC(=O)[C@H](CC(C)C)NC(=O)[C@H](CCCCN)NC(=O)[C@H](CCCNC(=N)N)NC(=O)[C@H](Cc1ccccc1)NC(=O)[C@H](Cc1ccccc1)NC(=O)[C@@H]1CCCN1C(=O)[C@@H](N)Cc1ccc(O)cc1)C(C)C)C(=O)O` [3102.0643] (H-YPFFRKLVL-OH): half-maximal inhibition (IC50) was put at 5.9 nM.

With `CSCC[C@H](N)C(=O)N[C@@H](CC(C)C)C(=O)N[C@@H](CC(C)C)C(=O)N[C@@H](CS)C(=O)N[C@@H](Cc1c[nH]cn1)C(=O)N[C@@H](CCCCN)C(=O)N1CCC[C@H]1C(=O)N[C@H](C(=O)N[C@@H](CC(C)C)C(=O)O)[C@@H](C)O` [3102.0644] (H-MLLCHKPTL-OH), the IC50 is 19 nM.

`CC[C@H](C)[C@H](NC(=O)[C@H](CCC(=O)O)NC(=O)[C@H](CCCNC(=N)N)NC(=O)[C@H](CC(C)C)NC(=O)[C@@H](N)CO)C(=O)N[C@@H](CO)C(=O)N[C@@H](CC(N)=O)C(=O)N[C@H](C(=O)N[C@H](C(=O)O)C(C)C)[C@@H](C)CC` [3102.0645] (H-SLREISNIV-OH) came in with an IC50 of 10 nM.

`CC(C)C[C@H](NC(=O)[C@H](CO)NC(=O)[C@@H](NC(=O)[C@H](CC(C)C)NC(=O)[C@H](CO)NC(=O)[C@H](CCC(N)=O)NC(=O)[C@H](CCCCN)NC(=O)[C@H](CC(N)=O)NC(=O)[C@@H](N)Cc1ccc(O)cc1)C(C)C)C(=O)O` [3102.0646] (H-YNKQSLVSL-OH) displayed an IC50 of 30 nM.

`CC[C@H](C)[C@H](NC(=O)[C@@H](N)CS)C(=O)N[C@@H](CCCCN)C(=O)N[C@@H](CO)C(=O)N[C@@H](Cc1c[nH]cn1)C(=O)N[C@@H](CO)C(=O)N[C@H](C(=O)N[C@@H](CO)C(=O)N[C@@H](CC(C)C)C(=O)O)C(C)C` [3102.0647] (H-CIKSHSVSL-OH) registered an IC50 of 2.3 nM.

`CC[C@H](C)[C@H](NC(=O)[C@@H](N)CC(N)=O)C(=O)N[C@@H](CCSC)C(=O)N1CCC[C@H]1C(=O)N[C@@H](CC(C)C)C(=O)N[C@@H](Cc1ccccc1)C(=O)N1CCC[C@H]1C(=O)N[C@H](C(=O)N[C@@H](Cc1ccccc1)C(=O)O)[C@@H](C)O` [3102.0648] (H-NIMPLFPTF-OH): it took 48 nM to reach half-maximal inhibition (IC50).

Molecule `CSCC[C@H](NC(=O)[C@H](Cc1ccccc1)NC(=O)[C@H](CCSC)NC(=O)[C@@H](N)CO)C(=O)N[C@@H](CO)C(=O)N[C@@H](CC(C)C)C(=O)N[C@@H](CC(C)C)C(=O)N1CCC[C@H]1C(=O)N[C@@H](C)C(=O)O` [3102.0656] (H-SMFMSLLPA-OH) returned an IC50 of 56 nM.

Molecule `CC[C@H](C)[C@H](NC(=O)[C@H](C)N)C(=O)N[C@@H](CCCCN)C(=O)N[C@@H](CC(C)C)C(=O)NCC(=O)N[C@@H](Cc1ccccc1)C(=O)N[C@@H](CCCCN)C(=O)N[C@@H](CO)C(=O)N[C@@H](CC(C)C)C(=O)O` [3102.0664] (H-AIKLGFKSL-OH) showed an IC50 of 41 nM.

For `CC[C@H](C)[C@H](NC(=O)[C@H](CCCNC(=N)N)NC(=O)[C@H](Cc1ccc(O)cc1)NC(=O)[C@H](CCCCN)NC(=O)[C@H](CC(N)=O)NC(=O)[C@@H](N)CO)C(=O)N[C@@H](CCCCN)C(=O)N[C@@H](CO)C(=O)N[C@H](C(=O)O)C(C)C` [3102.0666] (H-SNKYRIKSV-OH), inhibition was half-maximal at 2.7 nM (IC50).

Consider `CC(C)C[C@H](NC(=O)[C@@H](N)CC(=O)O)C(=O)N[C@@H](CCCNC(=N)N)C(=O)N[C@@H](CCCNC(=N)N)C(=O)N[C@@H](CCCNC(=N)N)C(=O)N[C@@H](Cc1ccccc1)C(=O)N[C@@H](CC(=O)O)C(=O)N[C@H](C(=O)N[C@@H](Cc1ccccc1)C(=O)O)[C@@H](C)O` [3102.0667] (H-DLRRRFDTF-OH), for which it took 1.6 nM to reach half-maximal inhibition (IC50).

In the case of `CC[C@H](C)[C@H](NC(=O)[C@@H]1CCCN1C(=O)[C@H](CCCCN)NC(=O)[C@@H](NC(=O)[C@H](CCCNC(=N)N)NC(=O)[C@H](CC(N)=O)NC(=O)[C@H](CCCNC(=N)N)NC(=O)[C@H](CCSC)NC(=O)[C@@H](N)CCSC)[C@@H](C)O)C(=O)O` [3102.0668] (H-MMRNRTKPI-OH), the IC50 came to 1.5 nM.

`CSCC[C@H](NC(=O)[C@H](CC(C)C)NC(=O)[C@H](CCCNC(=N)N)NC(=O)[C@H](CCCCN)NC(=O)[C@H](CCSC)NC(=O)[C@H](CCSC)NC(=O)[C@@H](N)CCSC)C(=O)N[C@@H](Cc1ccccc1)C(=O)N[C@@H](CCC(=O)O)C(=O)O` [3102.0672] (H-MMMKRLMFE-OH) yielded an IC50 of 75 nM.

As for `CC(C)C[C@H](NC(=O)[C@@H](N)CC(C)C)C(=O)N[C@@H](CCCCN)C(=O)N[C@@H](Cc1ccccc1)C(=O)N[C@@H](CCCNC(=N)N)C(=O)N[C@H](C(=O)N[C@@H](CCC(=O)O)C(=O)N[C@@H](CO)C(=O)N[C@@H](CS)C(=O)O)C(C)C` [3102.0675] (H-LLKFRVESC-OH), it took 74 nM to reach half-maximal inhibition (IC50).

As to `CC[C@H](C)[C@H](NC(=O)[C@H](CCCCN)NC(=O)[C@@H](NC(=O)[C@H](CCCCN)NC(=O)[C@@H](NC(=O)[C@@H](N)CC(=O)O)[C@@H](C)CC)[C@@H](C)O)C(=O)N[C@@H](CCSC)C(=O)N[C@H](C(=O)N[C@@H](CC(C)C)C(=O)O)C(C)C` [3102.0683] (H-DIKTKIMVL-OH), half-maximal inhibition (IC50) was put at 73 nM.

`CSCC[C@H](NC(=O)[C@H](CO)NC(=O)[C@H](Cc1c[nH]cn1)NC(=O)[C@H](CCCCN)NC(=O)[C@@H](NC(=O)[C@H](Cc1ccc(O)cc1)NC(=O)[C@H](CCSC)NC(=O)[C@@H](N)Cc1ccccc1)[C@@H](C)O)C(=O)N[C@@H](CC(C)C)C(=O)O` [3102.0684] (H-FMYTKHSML-OH) gave a 50% inhibitory concentration (IC50) of 0.2 nM.

The molecule `CC[C@H](C)[C@H](NC(=O)[C@H](CCCCN)NC(=O)[C@H](CC(C)C)NC(=O)[C@@H](N)Cc1ccccc1)C(=O)N[C@@H](CCCCN)C(=O)N[C@H](C(=O)N[C@H](C(=O)N[C@@H](C)C(=O)N[C@@H](C)C(=O)O)[C@@H](C)O)C(C)C` [3102.0685] (H-FLKIKVTAA-OH) had an IC50 of 15 nM.

With `CC(C)C[C@H](NC(=O)[C@@H](N)Cc1ccc(O)cc1)C(=O)N[C@@H](CCCNC(=N)N)C(=O)N[C@H](C(=O)N[C@@H](CCCCN)C(=O)N1CCC[C@H]1C(=O)N[C@@H](C)C(=O)N[C@@H](CO)C(=O)N[C@@H](C)C(=O)O)[C@@H](C)O` [3102.0686] (H-YLRTKPASA-OH), half-maximal inhibition (IC50) required 1.5 nM.

As for `CC[C@H](C)[C@H](NC(=O)[C@@H]1CCCN1C(=O)[C@H](CCCNC(=N)N)NC(=O)[C@H](Cc1c[nH]cn1)NC(=O)[C@H](CCCNC(=N)N)NC(=O)[C@H](CCCCN)NC(=O)[C@H](CC(N)=O)NC(=O)[C@@H](N)CO)C(=O)NCC(=O)O` [3102.0687] (H-SNKRHRPIG-OH), the IC50 was 34 nM.

Turning to `CC[C@H](C)[C@H](NC(=O)[C@H](Cc1c[nH]cn1)NC(=O)[C@H](Cc1ccccc1)NC(=O)[C@H](CCCNC(=N)N)NC(=O)[C@@H](NC(=O)[C@@H](N)CO)[C@@H](C)CC)C(=O)N[C@@H](CCCCN)C(=O)N[C@@H](CCC(=O)O)C(=O)N[C@@H](CC(C)C)C(=O)O` [3102.0695] (H-SIRFHIKEL-OH), the IC50 stood at 0.45 nM.

`CC(C)C[C@H](NC(=O)[C@H](CO)NC(=O)CNC(=O)[C@H](Cc1ccccc1)NC(=O)[C@@H](NC(=O)[C@H](CCC(N)=O)NC(=O)[C@H](CCCCN)NC(=O)[C@H](Cc1ccccc1)NC(=O)[C@@H](N)Cc1ccccc1)[C@@H](C)O)C(=O)O` [3102.0697] (H-FFKQTFGSL-OH) had an IC50 of 0.74 nM.

Molecule `CSCC[C@H](NC(=O)[C@H](CCC(N)=O)NC(=O)[C@H](CCCCN)NC(=O)[C@@H](NC(=O)[C@H](CCC(N)=O)NC(=O)[C@@H]1CCCN1C(=O)[C@@H](N)CC(N)=O)[C@@H](C)O)C(=O)N[C@@H](C)C(=O)N[C@@H](Cc1ccccc1)C(=O)O` [3102.0698] (H-NPQTKQMAF-OH) gave an IC50 of 14 nM.

In turn, `CC[C@H](C)[C@H](NC(=O)[C@@H](NC(=O)[C@H](Cc1ccccc1)NC(=O)[C@H](CCCCN)NC(=O)[C@H](CCC(N)=O)NC(=O)[C@H](CCSC)NC(=O)[C@H](CC(=O)O)NC(=O)[C@@H](N)CO)[C@@H](C)O)C(=O)N[C@@H](CC(C)C)C(=O)O` [3102.0699] (H-SDMQKFTIL-OH) returned an IC50 of 41 nM.

Turning to `CC(C)C[C@H](NC(=O)[C@@H](N)CC(N)=O)C(=O)N[C@@H](CCCNC(=N)N)C(=O)N[C@@H](CS)C(=O)N[C@@H](Cc1c[nH]cn1)C(=O)N[C@@H](CO)C(=O)N[C@@H](C)C(=O)N[C@@H](Cc1c[nH]cn1)C(=O)N[C@H](C(=O)O)C(C)C` [3102.0700] (H-NLRCHSAHV-OH), the IC50 came to 1.2 nM.

Take `CC[C@H](C)[C@H](NC(=O)[C@H](CC(C)C)NC(=O)[C@H](CCSC)NC(=O)[C@H](CCCNC(=N)N)NC(=O)[C@@H](NC(=O)[C@H](Cc1ccccc1)NC(=O)[C@@H](NC(=O)[C@@H](N)CO)[C@@H](C)CC)[C@@H](C)CC)C(=O)N[C@@H](CC(C)C)C(=O)O` [3102.0701] (H-SIFIRMLIL-OH): 10 nM corresponded to half-maximal inhibition (IC50).

`CC[C@H](C)[C@H](NC(=O)[C@H](CC(C)C)NC(=O)[C@@H](N)CCSC)C(=O)N[C@@H](CC(C)C)C(=O)N[C@@H](CC(N)=O)C(=O)N[C@@H](Cc1ccccc1)C(=O)N[C@@H](CS)C(=O)N[C@@H](CCCCN)C(=O)N[C@@H](CC(C)C)C(=O)O` [3102.0702] (H-MLILNFCKL-OH) displayed an IC50 of 3.9 nM.

For `CSCC[C@H](NC(=O)[C@@H]1CCCN1C(=O)[C@@H](N)CC(C)C)C(=O)N[C@@H](CC(C)C)C(=O)N[C@@H](Cc1ccc(O)cc1)C(=O)N[C@@H](Cc1ccccc1)C(=O)N[C@@H](CC(C)C)C(=O)N[C@@H](Cc1ccc(O)cc1)C(=O)N[C@H](C(=O)O)C(C)C` [3102.0703] (H-LPMLYFLYV-OH), half-maximal inhibition (IC50) was put at 2.5 nM.

`CC[C@H](C)[C@H](NC(=O)[C@@H](NC(=O)[C@H](CCC(N)=O)NC(=O)[C@H](CCCNC(=N)N)NC(=O)[C@H](CCCCN)NC(=O)[C@H](Cc1ccccc1)NC(=O)[C@H](CO)NC(=O)[C@@H]1CCCN1C(=O)[C@@H](N)CC(N)=O)[C@@H](C)CC)C(=O)O` [3102.0704] (H-NPSFKRQII-OH) registered an IC50 of 20 nM.

As for `CC[C@H](C)[C@H](NC(=O)[C@H](CC(=O)O)NC(=O)[C@H](CC(C)C)NC(=O)[C@H](CCCCN)NC(=O)[C@H](CCCCN)NC(=O)[C@H](CCCNC(=N)N)NC(=O)[C@H](CCCCN)NC(=O)[C@@H](NC(=O)[C@@H](N)Cc1ccccc1)C(C)C)C(=O)O` [3102.0707] (H-FVKRKKLDI-OH), inhibition was half-maximal at 3 nM (IC50).
